Assay results taken from ChEMBL document CHEMBL2040790 (Bioorg Med Chem Lett, 2012).
The source made the active and inactive calls. The rule behind the calls is not given here.

Legend:
Type in all cases: functional, organism-based
La Crosse virus [1] = assay: Antiviral activity against La Crosse virus infected in african green monkey Vero cells assessed as inhibition of virus-induced cytopathic effect by fluorometric analysis
Vaccinia virus = assay: Antiviral activity against Vaccinia virus; conditions: Orthopoxvirus vaccinia
La Crosse virus [2] = assay: Antiviral activity against La Crosse virus infected in african green monkey Vero cells assessed as inhibition of virus-induced cytopathic effect at 25 uM during single experiment set up by fluorometric analysis

`COc1cc(N/C(=N/C(=O)c2ccc(C(C)(C)C)cc2)SCCN(C)C)ccc1NC(=O)c1ccccc1Cl` gave an EC50 (La Crosse virus [1]) of over 25 µM and an EC50 (Vaccinia virus) of over 25 µM.
For `Cc1ccc(Cl)c(NC(=S)NC(=O)c2ccc(C(C)(C)C)cc2)c1`, the Activity (La Crosse virus [2]) was “inactive”, the EC50 (La Crosse virus [1]) was 1.67 µM and the EC50 (Vaccinia virus) was 0.66 µM.
`CN(C)c1ccc(NC(=S)NC(=O)c2ccc(C(C)(C)C)cc2)cc1` gave an EC50 (Vaccinia virus) of 2.43 µM.
`COc1cc(NC(=S)NC(=O)c2ccc(C(C)(C)C)cc2)ccc1NC(=O)CCN(C)C` was tested, and the EC50 (La Crosse virus [1]) was over 25 µM and the EC50 (Vaccinia virus) was over 25 µM.
In the case of `COc1cc(NC(=S)NC(=O)c2ccc(C(C)(C)C)cc2)ccc1NC(=O)c1cnccn1`, the EC50 (La Crosse virus [1]) is reported as over 25 µM and the EC50 (Vaccinia virus) is reported as over 25 µM.
In the case of `COc1cc(N/C(=N/C(=O)c2ccc(C(C)(C)C)cc2)SCC(=O)OC(C)(C)C)ccc1NC(=O)c1ccccc1Cl`, the EC50 (La Crosse virus [1]) is reported as over 25 µM and the EC50 (Vaccinia virus) is reported as over 25 µM.
Compound `CC(C)(C)c1ccc(C(=O)NC(=S)Nc2nc(-c3cccc([N+](=O)[O-])c3)cs2)cc1` has an EC50 (La Crosse virus [1]) of over 25 µM and an EC50 (Vaccinia virus) of over 25 µM.
In the case of `COc1cc(NC(=S)NC(=O)c2ccc(C(C)(C)C)cc2)ccc1NC(=O)c1ccncc1`, the EC50 (Vaccinia virus) is reported as 2.03 µM.
Compound `CC(C)(C)c1ccc(C(=O)NC(=S)Nc2ccc(C(=O)O)cc2)cc1` has an EC50 (La Crosse virus [1]) of over 25 µM and an EC50 (Vaccinia virus) of over 25 µM.
Compound `COc1cc(NC(=N)NC(=O)c2ccc(C(C)(C)C)cc2)ccc1NC(=O)c1ccccc1Cl` has an EC50 (Vaccinia virus) of over 25 µM.
`COC(=O)c1cnc(NC(=S)NC(=O)c2ccc(C(C)(C)C)cc2)s1` was tested, and the EC50 (La Crosse virus [1]) was over 25 µM and the EC50 (Vaccinia virus) was over 25 µM.
`COc1ccc(-c2csc(NC(=S)NC(=O)c3ccc(C(C)(C)C)cc3)n2)cc1OC` gave an EC50 (La Crosse virus [1]) of over 25 µM and an EC50 (Vaccinia virus) of over 25 µM.
With `CC(C)(C)c1ccc(C(=O)NC(=S)Nc2ccc(Nc3ccccn3)cc2)cc1` the EC50 (La Crosse virus [1]) was over 25 µM and the EC50 (Vaccinia virus) was over 25 µM.
Compound `CCS/C(=N\C(=O)c1ccc(C(C)(C)C)cc1)Nc1ccc(NC(=O)c2ccccc2Cl)c(OC)c1` has an EC50 (La Crosse virus [1]) of 0.3 µM and an EC50 (Vaccinia virus) of 0.23 µM.
With `CC(C)(C)c1ccc(C(=O)NC(=S)Nc2ccc(S(=O)(=O)NC3CCCCC3)cc2)cc1` the EC50 (La Crosse virus [1]) was over 25 µM and the EC50 (Vaccinia virus) was over 25 µM.
Compound `CC(C)(C)c1ccc(C(=O)NC(=S)Nc2ccc(Nc3ccccc3)cc2)cc1` has an EC50 (La Crosse virus [1]) of 1.7 µM and an EC50 (Vaccinia virus) of 0.82 µM.
`Cc1ccccc1NC(=S)NC(=O)c1ccc(C(C)(C)C)cc1` gave an EC50 (La Crosse virus [1]) of 0.63 µM and an EC50 (Vaccinia virus) of 0.83 µM.
`COc1cc(NC(=S)NC(=O)c2ccc(C(C)(C)C)cc2)ccc1NC(=O)c1cccnc1` showed an EC50 (Vaccinia virus) of 1.72 µM.
`CC(C)(C)c1ccc(C(=O)NC(=S)NC2CCCCC2)cc1` showed an EC50 (La Crosse virus [1]) of 3.71 µM and an EC50 (Vaccinia virus) of 4.92 µM.
`CC(C)(C)c1ccc(C(=O)NC(=S)Nc2cccc(C(F)(F)F)c2Cl)cc1` gave an EC50 (La Crosse virus [1]) of 0.85 µM and an EC50 (Vaccinia virus) of 1.83 µM.
With `COc1cc(NC(=S)NCc2ccc(C(C)(C)C)cc2)ccc1NC(=O)c1ccccc1Cl` the EC50 (La Crosse virus [1]) was over 25 µM and the EC50 (Vaccinia virus) was over 25 µM.
With `Cc1cc(C)cc(NC(=S)NC(=O)c2ccc(C(C)(C)C)cc2)c1` the Activity (La Crosse virus [2]) was “inactive”, the EC50 (La Crosse virus [1]) was 4.43 µM and the EC50 (Vaccinia virus) was 3.48 µM.
`CC(C)(C)c1ccc(C(=O)NC(=S)Nc2cccc(C(=O)O)c2)cc1` showed an EC50 (La Crosse virus [1]) of over 25 µM and an EC50 (Vaccinia virus) of over 25 µM.
In the case of `Cc1ccc(NC(=S)NC(=O)c2ccc(C(C)(C)C)cc2)cc1C`, the EC50 (La Crosse virus [1]) is reported as 1.23 µM and the EC50 (Vaccinia virus) is reported as 3.93 µM.
In the case of `CC(C)(C)c1ccc(C(=O)NC(=S)Nc2ccc(Nc3cccnc3)cc2)cc1`, the EC50 (La Crosse virus [1]) is reported as over 25 µM and the EC50 (Vaccinia virus) is reported as 24.5 µM.
Compound `COc1ccc(NC(=S)NC(=O)c2ccc(C(C)(C)C)cc2)cc1NC(=O)c1ccccc1Cl` has an EC50 (La Crosse virus [1]) of over 25 µM and an EC50 (Vaccinia virus) of over 25 µM.
`COc1cc(NC(=S)NC(=O)c2ccc(C(C)(C)C)cc2)ccc1NC(C)=O` showed an EC50 (La Crosse virus [1]) of 1.35 µM and an EC50 (Vaccinia virus) of 3.27 µM.
For `CC(C)(C)c1ccc(C(=O)NC(=S)Nc2ccc(NC(=O)c3ccccc3)cc2Cl)cc1`, the EC50 (La Crosse virus [1]) was 0.08 µM and the EC50 (Vaccinia virus) was 0.16 µM.
`COc1cc(NC(=S)NC(=O)c2ccc(C(C)(C)C)cc2)ccc1NC(=O)c1ncc[nH]1` gave an EC50 (La Crosse virus [1]) of over 25 µM and an EC50 (Vaccinia virus) of over 25 µM.
With `COc1ccc(NC(=S)NC(=O)c2ccc(C(C)(C)C)cc2)cc1` the EC50 (La Crosse virus [1]) was over 25 µM and the EC50 (Vaccinia virus) was 2.39 µM.
Compound `CC(C)(C)c1ccc(C(=O)NC(=S)Nc2ccc(Nc3ccncc3)cc2)cc1` has an EC50 (La Crosse virus [1]) of 7.7 µM and an EC50 (Vaccinia virus) of over 25 µM.
`CC(C)(C)c1ccc(C(=O)NC(=S)Nc2cccc(NC(=O)c3ccccc3Cl)c2)cc1` was tested, and the EC50 (La Crosse virus [1]) was over 25 µM and the EC50 (Vaccinia virus) was over 25 µM.
`CC(C)(C)c1ccc(C(=O)NC(=S)Nc2ccccc2N)cc1` gave an EC50 (La Crosse virus [1]) of over 25 µM and an EC50 (Vaccinia virus) of over 25 µM.
`CC(C)(C)c1ccc(C(=O)NC(=S)Nc2cccnc2)cc1` showed an EC50 (La Crosse virus [1]) of over 25 µM and an EC50 (Vaccinia virus) of over 25 µM.
`CC(C)(C)c1ccc(C(=O)NC(=S)Nc2cc(C(F)(F)F)ccc2Cl)cc1` was tested, and the EC50 (La Crosse virus [1]) was 0.6 µM and the EC50 (Vaccinia virus) was 1 µM.
Compound `CC(C)(C)c1ccc(C(=O)NC(=S)Nc2ccc([N+](=O)[O-])cc2)cc1` has an EC50 (La Crosse virus [1]) of over 25 µM and an EC50 (Vaccinia virus) of 4.08 µM.
With `COc1cc(NC(=S)NC(=O)c2ccc(C(C)(C)C)cc2)ccc1NC(=O)c1ccc(N)cc1` the EC50 (La Crosse virus [1]) was over 25 µM and the EC50 (Vaccinia virus) was 20 µM.
Compound `COc1cc(NC(=S)NC(=O)c2ccc(C(C)(C)C)cc2)ccc1NC(=O)c1c[nH]cn1` has an EC50 (La Crosse virus [1]) of over 25 µM and an EC50 (Vaccinia virus) of over 25 µM.
In the case of `CC(C)(C)c1ccc(C(=O)NC(=S)Nc2ccc(S(=O)(=O)Nc3nccs3)cc2)cc1`, the EC50 (La Crosse virus [1]) is reported as over 25 µM and the EC50 (Vaccinia virus) is reported as over 25 µM.
`CC(C)(C)c1ccc(C(=O)NC(=S)Nc2ccc(S(=O)(=O)N3CCCCC3)cc2)cc1` showed an EC50 (La Crosse virus [1]) of over 25 µM and an EC50 (Vaccinia virus) of over 25 µM.
